Non-standard residues stand in square brackets, D forms with d. Residues, ends and D or L forms follow the SMILES beside them. *: point of attachment. AspNHSO2(5'-O-Ado) = Nc1ncnc2c1ncn2[C@@H]1O[C@H](COS(=O)(=O)NC(=O)[C@H](CC(=O)O)N*)[C@@H](O)[C@H]1O; X1 = Nc1ncnc2c1ncn2[C@@H]1O[C@H](COS(=O)(=O)NC(=O)[C@@H](CC(=O)O)N*)[C@@H](O)[C@H]1O; For = O=C*
What was measured:
AlaRS [1] = target: T1, AlaRS (Escherichia coli, UniProt P00957); details: positive control, previously shown; cited from earlier work
T1 construct: endogenous in cells; host or cells: E. coli wild-type S30 cell extract
T1 sequence (P00957 whole entry): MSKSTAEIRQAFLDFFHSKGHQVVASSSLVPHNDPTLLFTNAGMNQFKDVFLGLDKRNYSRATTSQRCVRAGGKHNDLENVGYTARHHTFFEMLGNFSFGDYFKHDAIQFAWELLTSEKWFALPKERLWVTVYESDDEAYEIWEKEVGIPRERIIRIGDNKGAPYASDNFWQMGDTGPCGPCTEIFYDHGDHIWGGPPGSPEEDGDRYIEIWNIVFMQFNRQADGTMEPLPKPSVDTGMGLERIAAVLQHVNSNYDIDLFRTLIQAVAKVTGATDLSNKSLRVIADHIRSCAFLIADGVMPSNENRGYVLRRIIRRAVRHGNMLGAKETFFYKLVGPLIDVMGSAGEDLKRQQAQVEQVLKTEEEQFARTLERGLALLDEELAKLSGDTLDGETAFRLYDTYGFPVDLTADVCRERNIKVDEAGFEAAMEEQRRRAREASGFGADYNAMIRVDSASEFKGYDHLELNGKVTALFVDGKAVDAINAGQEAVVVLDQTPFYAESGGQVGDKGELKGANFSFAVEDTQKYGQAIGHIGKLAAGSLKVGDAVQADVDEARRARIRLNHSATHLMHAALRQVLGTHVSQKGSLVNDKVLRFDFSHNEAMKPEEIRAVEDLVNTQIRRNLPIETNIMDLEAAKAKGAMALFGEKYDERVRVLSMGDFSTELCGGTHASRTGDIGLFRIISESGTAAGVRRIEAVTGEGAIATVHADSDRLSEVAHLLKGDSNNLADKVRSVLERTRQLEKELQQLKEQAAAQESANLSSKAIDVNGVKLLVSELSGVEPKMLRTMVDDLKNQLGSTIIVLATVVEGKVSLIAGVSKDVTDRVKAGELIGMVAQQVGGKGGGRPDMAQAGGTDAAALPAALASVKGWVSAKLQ
Description: (§1) All experiments were performed in triplicate.

GlyRS [2] = target: T2, GlyRS (Escherichia coli, UniProt P00960); details: positive control, previously shown; cited from earlier work
T2 sequence (P00961 2-689): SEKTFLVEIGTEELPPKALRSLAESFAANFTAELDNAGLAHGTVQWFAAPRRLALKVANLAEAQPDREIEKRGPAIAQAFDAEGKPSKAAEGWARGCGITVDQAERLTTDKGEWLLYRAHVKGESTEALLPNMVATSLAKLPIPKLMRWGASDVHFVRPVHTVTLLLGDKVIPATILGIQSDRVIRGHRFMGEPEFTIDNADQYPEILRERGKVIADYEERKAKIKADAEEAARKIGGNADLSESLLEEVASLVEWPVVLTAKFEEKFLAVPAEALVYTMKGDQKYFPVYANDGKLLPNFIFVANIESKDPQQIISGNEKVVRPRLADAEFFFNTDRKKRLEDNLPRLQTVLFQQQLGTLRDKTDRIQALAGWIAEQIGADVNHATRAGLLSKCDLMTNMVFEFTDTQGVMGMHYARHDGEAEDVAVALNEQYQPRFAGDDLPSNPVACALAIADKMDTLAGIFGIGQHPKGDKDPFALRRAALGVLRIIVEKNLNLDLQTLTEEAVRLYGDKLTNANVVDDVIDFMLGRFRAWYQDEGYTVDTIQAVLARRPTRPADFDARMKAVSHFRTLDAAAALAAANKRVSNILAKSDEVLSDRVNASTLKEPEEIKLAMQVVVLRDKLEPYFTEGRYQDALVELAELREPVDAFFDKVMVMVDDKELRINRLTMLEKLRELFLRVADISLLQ
T2 sequence (P00960 whole entry): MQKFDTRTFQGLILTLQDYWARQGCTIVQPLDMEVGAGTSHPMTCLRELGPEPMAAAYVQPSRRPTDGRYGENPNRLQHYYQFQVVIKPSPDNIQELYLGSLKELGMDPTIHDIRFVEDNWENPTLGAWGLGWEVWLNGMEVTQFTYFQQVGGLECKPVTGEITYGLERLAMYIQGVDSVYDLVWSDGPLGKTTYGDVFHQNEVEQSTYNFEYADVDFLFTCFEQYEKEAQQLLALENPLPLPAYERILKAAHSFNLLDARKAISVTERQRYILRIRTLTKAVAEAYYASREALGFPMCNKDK

ProRS [3] = target: T3, ProRS (Escherichia coli, UniProt P16659); details: positive control, previously shown; cited from earlier work
T3 construct: endogenous in cells; host or cells: E. coli wild-type S30 cell extract
T3 sequence (P16659 whole entry): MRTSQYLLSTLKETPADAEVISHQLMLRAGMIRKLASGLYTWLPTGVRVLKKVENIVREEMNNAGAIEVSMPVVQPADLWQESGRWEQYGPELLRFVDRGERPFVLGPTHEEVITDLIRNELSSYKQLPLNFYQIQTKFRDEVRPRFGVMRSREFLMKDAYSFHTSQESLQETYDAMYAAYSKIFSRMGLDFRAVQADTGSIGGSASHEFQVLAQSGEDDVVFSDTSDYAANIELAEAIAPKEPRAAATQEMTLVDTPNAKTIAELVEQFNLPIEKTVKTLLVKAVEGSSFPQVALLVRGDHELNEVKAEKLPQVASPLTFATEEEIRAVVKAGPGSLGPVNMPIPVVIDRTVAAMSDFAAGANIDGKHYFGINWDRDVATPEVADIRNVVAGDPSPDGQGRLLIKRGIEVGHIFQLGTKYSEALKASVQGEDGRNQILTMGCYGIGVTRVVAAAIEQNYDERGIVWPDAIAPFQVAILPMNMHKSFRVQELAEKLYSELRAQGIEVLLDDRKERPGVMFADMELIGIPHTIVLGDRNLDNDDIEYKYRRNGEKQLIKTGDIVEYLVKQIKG
Description: as §1

McC-sensitive E. coli = assay: Whole cell activity determination (OD600), all cells tested; assay type: cell-based; details: all cells tested (Ara-Yej strain, E. coli lacking rim genes); OD600 after 8 h, 37 °C, LB; data not shown
LeuRS = target: T4, LeuRS (Escherichia coli, UniProt P07813); assay: In vitro tRNA aminoacylation in S30 cell extract, LeuRS; assay type: biochemical, E. coli; details: 50 µM, wild-type cell extract, triplicate; Figure 3
T4 construct: endogenous in cells; host or cells: E. coli wild-type S30 cell extract
T4 sequence (P07813 whole entry): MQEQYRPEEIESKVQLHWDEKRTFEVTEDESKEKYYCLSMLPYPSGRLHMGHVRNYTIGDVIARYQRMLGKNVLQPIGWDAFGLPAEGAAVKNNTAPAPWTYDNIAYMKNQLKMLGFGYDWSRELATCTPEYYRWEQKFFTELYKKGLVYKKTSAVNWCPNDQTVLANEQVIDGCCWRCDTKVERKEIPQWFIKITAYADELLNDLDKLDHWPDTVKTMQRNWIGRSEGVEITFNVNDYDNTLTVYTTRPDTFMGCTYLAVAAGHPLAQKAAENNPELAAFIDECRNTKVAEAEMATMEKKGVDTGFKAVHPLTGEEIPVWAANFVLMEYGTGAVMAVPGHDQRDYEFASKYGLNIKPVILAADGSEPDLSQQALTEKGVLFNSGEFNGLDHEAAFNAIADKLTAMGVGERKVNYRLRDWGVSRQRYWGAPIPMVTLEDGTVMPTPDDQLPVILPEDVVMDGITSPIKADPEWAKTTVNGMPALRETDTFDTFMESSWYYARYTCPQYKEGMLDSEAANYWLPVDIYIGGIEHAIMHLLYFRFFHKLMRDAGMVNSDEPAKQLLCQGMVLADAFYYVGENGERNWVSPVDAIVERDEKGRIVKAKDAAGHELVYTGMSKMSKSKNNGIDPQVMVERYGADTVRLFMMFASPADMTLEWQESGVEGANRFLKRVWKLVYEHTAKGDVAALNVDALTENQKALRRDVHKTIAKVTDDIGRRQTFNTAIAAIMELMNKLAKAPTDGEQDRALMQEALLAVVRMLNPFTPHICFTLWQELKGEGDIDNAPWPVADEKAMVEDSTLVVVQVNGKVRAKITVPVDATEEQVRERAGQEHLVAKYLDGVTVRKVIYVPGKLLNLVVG
Description: (§2) The growth inhibitory properties for all new compounds were determined by measuring the optical density reached by cultures of McC-sensitive E. coli in wells of microtiter plates in the presence of various concentrations of the respective inhibitors. As shown earlier, the intracellular target of McC analogs is determined by the C-terminal amino acid, which remains attached onto the sulfamoyladenosine following intracellular metabolism. To facilitate activity evaluation and the mechanism of action studies of newly synthesized compounds, an E. coli tester strain Ara-Yej (BW39758) was used, where the yejABEF operon is under control of the arabinose-inducible araBAD promoter. […] In addition to the Ara-Yej strain, E. coli lacking rim genes (and therefore hypersensitive to McC) was used as a tester strain. […] In in vitro aminoacylation experiments, compound 3 was tested for its potential to inhibit ProRS, GlyRS and AlaRS and compound 2 was tested for its ability to inhibit LeuRS in a wild-type cell extract. Established inhibitors of these enzymes are the respective 5’-O-[N-[L-aminoacyl]-sulfamoyl]adenosines: Pro-SA, Gly-SA, Ala-SA and Leu-SA [2-4]. […]
(§3) 1 μL of solution containing inhibitor, 3 μL of E. coli S30 extracts was added. […] Following the addition of scintillation liquid, the amount of radioactivity was determined in a scintillation counter.

AlaRS [4] = target: T1, AlaRS; assay: In vitro tRNA aminoacylation in S30 cell extract, AlaRS; assay type: biochemical, E. coli; details: 50 µM, wild-type cell extract, triplicate; Figure 3
Description: as §2, §3

GlyRS [5] = target: T2, GlyRS; assay: In vitro tRNA aminoacylation in S30 cell extract, GlyRS; assay type: biochemical, E. coli; set-up: endogenous in cells; host or cells: E. coli wild-type S30 cell extract; details: 50 µM, wild-type cell extract, triplicate; Figure 3
Description: as §2, §3

ProRS [6] = target: T3, ProRS; assay: In vitro tRNA aminoacylation in S30 cell extract, ProRS; assay type: biochemical, E. coli; details: 50 µM, wild-type cell extract, triplicate; Figure 3
Description: as §2, §3

[7] = test system: peptidases PepA, PepB and PepN; assay: Metabolism (processing) of the peptide chain by peptidases, release of the active moiety; assay type: in vitro ADME; details: E. coli S30 cell extracts; concluded from aminoacylation inhibition experiments
From the text: This is a somewhat expected result as it has frequently been shown that the introduction of (D)-amino acids can prevent the hydrolysis by peptidases.
Compounds 5-7 were especially designed to circumvent this problem; all three compounds contain L-amino acids at the sixth and seventh position, allowing endopeptidases to cleave between these two L-amino acids, resulting in release of the active moiety. […] Also the modification in compound 6, inspired by albomycin whereby pepN hydrolyzes the peptide bond between a serine and a modified amino acid carrying an acidic side chain [22], could not rescue the activity. […] Whether or not incorporation of (D)-amino acids in the transport peptide part interferes with uptake of the McC derivatives by the YejABEF transporter is less relevant here, as in vitro tests already show lack of activity. Additional reduced uptake of the analogues 4-7 however cannot be excluded.
Cells were grown in 50 mL LB-medium. After centrifuging at 3000 × g for 10 min. the supernatant was discarded and the pellet was resuspended in 40 mL buffer containing: Tris.HCl or Hepes.KOH (pH = 8.0) (20 mM), MgCl2 (10 mM), KCl (100 mM). […]
as §3

AspRS = target: T5, AspRS (Escherichia coli, UniProt P21889); assay: In vitro tRNA aminoacylation in S30 cell extracts, AspRS; assay type: biochemical, E. coli; details: for inhibition of AspRS in vitro: aminoacylation in cell extracts, compound needs no metabolism
T5 construct: endogenous in cells; host or cells: S30 extracts of E. coli ΔrimL, ΔpepABN and Δdtd cells
T5 sequence (P21889 whole entry): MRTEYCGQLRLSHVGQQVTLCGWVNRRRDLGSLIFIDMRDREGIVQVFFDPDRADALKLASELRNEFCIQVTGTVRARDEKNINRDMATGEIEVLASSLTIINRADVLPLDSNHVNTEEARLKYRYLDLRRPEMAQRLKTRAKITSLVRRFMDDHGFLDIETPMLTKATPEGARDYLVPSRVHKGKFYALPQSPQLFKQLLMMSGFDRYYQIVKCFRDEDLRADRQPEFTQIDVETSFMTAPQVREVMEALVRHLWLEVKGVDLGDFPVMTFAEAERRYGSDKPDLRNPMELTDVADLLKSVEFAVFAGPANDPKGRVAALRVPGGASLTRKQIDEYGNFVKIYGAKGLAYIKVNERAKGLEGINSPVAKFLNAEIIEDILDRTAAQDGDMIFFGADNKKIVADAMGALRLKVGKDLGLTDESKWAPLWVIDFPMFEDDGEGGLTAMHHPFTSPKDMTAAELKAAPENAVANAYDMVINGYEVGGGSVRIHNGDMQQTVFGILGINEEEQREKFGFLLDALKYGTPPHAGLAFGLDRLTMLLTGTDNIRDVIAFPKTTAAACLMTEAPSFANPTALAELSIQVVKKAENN
Description: Figure 5 Aminoacylation experiments of the McC analogues containing (D)-amino acids at 50 µM. Upper panel: 30 min incubation with a cell extract deficient of RimL. Middle panel: 30 min incubation with a cell extract deficient of PepA, PepB and PepN. Lower panel: Comparison of two McC analogues targeting AspRS, compound 8 having a C-terminal D-configuration, compound 1f having a C-terminal (L)-configuration. Incubation was done with two different cell extracts, lacking either DTD or RimL.
To investigate whether compound 8 would be more resistant than compound 1f to MccF-catalyzed hydrolysis and/or MccE/RimL-catalyzed acetylation, and to investigate a possible role of DTD, a time-course of tRNA^Asp aminoacylation inhibition was followed in two different cell extracts, one prepared from cells lacking Rim proteins, and another from cells lacking DTD. From Figure 5 (lower panel) it can be observed that at time point zero, i.e., immediately after addition of the compounds, there was no inhibition since the compounds were still unmetabolized. […] Upon further incubation, the reaction recovered from inhibition for both compounds. For compound 8 this effect was more pronounced than for compound 1f, especially in cell extracts prepared from cells lacking DTD proteins.
To assess the degree of inhibition of the aminoacylation reaction, in vitro tests were performed using the relevant S30 cell extracts.
Cells were grown in 50 mL LB-medium. After centrifuging at 3000 × g for 10 min. the supernatant was discarded and the pellet was resuspended in 40 mL buffer containing: Tris.HCl or Hepes.KOH (pH = 8.0) (20 mM), MgCl2 (10 mM), KCl (100 mM). The cell-suspension was centrifuged again at 4800 rpm. This procedure was repeated 2 times. The pellet was resuspended in 1 mL of the following buffer Tris.HCl or Hepes.KOH (pH = 8.0) (20 mM), MgCl2 (10 mM), KCl (100 mM), DTT (1 mM) and kept at 0 °C. Subsequently, the cells were sonicated for 10 sec. and left at 0 °C for 10 min. This procedure was repeated for 5-8 times. The lysate was centrifuged at 15000 g for 30 min at +4 °C.
1 μL of solution containing inhibitor, 3 μL of E. coli S30 extracts was added. Next, 16 μL of the following aminoacylation mixture was added: Tris.HCl (30mM, pH 8.0), DTT (1 mM), bulk of E. coli tRNA (5 g/l), ATP (3 mM), KCl (30 mM), MgCl2 (8 mM), and the specified, radio labeled amino acid (40 μM). The reaction products were precipitated in cold 10% TCA on Whatman 3MM papers, 5 min. after the aminoacylation mixture was added. The aminoacylation reaction was carried out at room temperature. Depending on whether or not processing was needed, variable time intervals were included between the addition of the cell-extract and the addition of the aminoacylation mixture. After thorough washing with cold 10% TCA, the papers were washed twice with acetone and dried on a heating plate. Following the addition of scintillation liquid, the amount of radioactivity was determined in a scintillation counter.

[8] = time course, extract from cells lacking DTD, at 15 min

**Q.** With `C[C@H](N)C(=O)NS(=O)(=O)OC[C@H]1O[C@@H](n2cnc3c(N)ncnc32)[C@H](O)[C@@H]1O` [Ala-SA] as the compound, how does the “inhibition of AlaRS” value (AlaRS [1]) read?
**A.** Its value is “potent inhibitors”.

**Q.** With `NCC(=O)NS(=O)(=O)OC[C@H]1O[C@@H](n2cnc3c(N)ncnc32)[C@H](O)[C@@H]1O` [Gly-SA] as the compound, how does the “inhibition of GlyRS” value (GlyRS [2]) read?
**A.** Its value is “potent inhibitors”.

**Q.** With `Nc1ncnc2c1ncn2[C@@H]1O[C@H](COS(=O)(=O)NC(=O)[C@@H]2CCCN2)[C@@H](O)[C@H]1O` [Pro-SA, 5’-O-[N-[(L)-prolyl]-sulfamoyl]adenosine] as the compound, how does the “inhibition of ProRS” value (ProRS [3]) read?
**A.** The value was “potent inhibitors”.

**Q.** For `CN[C@@H](CC(C)C)C(=O)NS(=O)(=O)OC[C@H]1O[C@@H](n2cnc3c(N)ncnc32)[C@H](O)[C@@H]1O` [compound 2, 5’-O-[N-[(L)-N-methyl-leucyl]-sulfamoyl]adenosine], which “whole-cell activity (growth inhibition)” value (McC-sensitive E. coli) is on record?
**A.** Its value is “inactive”.

**Q.** What about the “inhibition of LeuRS aminoacylation” value (LeuRS) of the same compound?
**A.** The value was “inactive”.

**Q.** For `CNCC(=O)NS(=O)(=O)OC[C@H]1O[C@@H](n2cnc3c(N)ncnc32)[C@H](O)[C@@H]1O` [compound 3, sarcosyl-sulfamoyladenosine], which “whole-cell activity (growth inhibition)” value (McC-sensitive E. coli) is on record?
**A.** Its value is “inactive”.

**Q.** What about the “inhibition of AlaRS aminoacylation” value (AlaRS [4]) of the same compound?
**A.** The value was “could not be targeted”.

**Q.** And the “inhibition of GlyRS aminoacylation” value (GlyRS [5])?
**A.** The value was “could not be targeted”.

**Q.** What about the “inhibition of ProRS aminoacylation” value (ProRS [6]) of the same compound?
**A.** The value was “does not show any major inhibitory binding affinity”.

**Q.** With `CSCC[C@H](NC=O)C(=O)N[C@H](CCCNC(=N)N)C(=O)N[C@@H](C(=O)NCC(=O)N[C@H](CC(N)=O)C(=O)N[C@H](C)C(=O)N[C@@H](CC(=O)O)C(=O)NS(=O)(=O)OC[C@H]1O[C@@H](n2cnc3c(N)ncnc32)[C@H](O)[C@@H]1O)[C@H](C)O` [compound 4] (For-M[dR][dT]G[dN][dA]-{AspNHSO2(5'-O-Ado)}) as the compound, how does the “metabolism by the peptidases (release of the active moiety)” value [7] read?
**A.** The value was “not capable of hydrolyzing”.

**Q.** Which results are given for `CSCC[C@H](NC=O)C(=O)N[C@@H](CCCNC(=N)N)C(=O)N[C@H](C(=O)NCC(=O)N[C@@H](CC(N)=O)C(=O)N[C@@H](C)C(=O)N[C@H](CC(=O)O)C(=O)NS(=O)(=O)OC[C@H]1O[C@@H](n2cnc3c(N)ncnc32)[C@H](O)[C@@H]1O)[C@@H](C)O` [compound 8] (For-MRTGNA-X1)?
**A.** reduction of esterification of Asp-C14 to tRNAAsp (AspRS; time course, extract from cells lacking DTD, after 60 min): 44%; incorporation of Asp-C14 into tRNAAsp (AspRS; [8]): 11%; inhibition of tRNAAsp aminoacylation (AspRS; [8]): 89%; metabolism by the peptidases (release of the active moiety) [7]: can metabolize

**Q.** What does the source list for `Nc1ncnc2c1ncn2[C@@H]1O[C@H](COS(=O)(=O)NC(=O)[C@H](N)CC(=O)O)[C@@H](O)[C@H]1O` [compound 9, (D)-aspartyl-sulfamoyladenosine]?
**A.** inhibition of AspRS in vitro (AspRS): can also inhibit AspRS; inhibition of AspRS in vitro (AspRS; listed as (D)-D-SA): equally inhibitory

**Q.** For `Nc1ncnc2c1ncn2[C@@H]1O[C@H](COS(=O)(=O)NC(=O)[C@@H](N)CC(=O)O)[C@@H](O)[C@H]1O` [compound 10, (L)-aspartyl-sulfamoyladenosine, reference compound], which “inhibition of AspRS in vitro” value (AspRS) is on record?
**A.** Its value is “equally inhibitory”.
